# Experimental data published in patent publication US20110274697A1, “NOVEL USES” (priority 2009, published 2011).
# How the values were obtained:
# [1] = system: cells with low CD20 density; details: compared to rituximab; especially in cells with low CD20 density, as in CLL; cited from earlier work
# CD20 on JVM-3 cells = target: T1, CD20 on JVM-3 cells (Homo sapiens, UniProt P11836); test: FACS binding of fluorescently labeled anti-CD20 antibodies to JVM-3 cells; details: fluorescently labeled antibody, BD FACSCanto, FIG. 2
# T1 construct: medium level expression profile of CD20 on JVM-3 cells; endogenous in cells; host or cells: JVM-3 cells
# T1 sequence (P11836 1-297): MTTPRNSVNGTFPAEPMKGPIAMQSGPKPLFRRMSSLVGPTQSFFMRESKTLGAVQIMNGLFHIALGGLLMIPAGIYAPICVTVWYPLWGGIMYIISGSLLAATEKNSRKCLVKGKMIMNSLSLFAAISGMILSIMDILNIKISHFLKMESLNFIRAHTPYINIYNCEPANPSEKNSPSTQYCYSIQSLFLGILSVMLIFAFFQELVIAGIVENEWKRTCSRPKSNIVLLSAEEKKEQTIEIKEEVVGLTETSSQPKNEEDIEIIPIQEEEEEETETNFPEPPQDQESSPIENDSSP
# Description: One microgram of each antibody was prepared in PBS and five microliters of the Zenon human IgG labeling reagent (Component A) was added to the antibody solution. The mixture was incubated for five minutes at room temperature and then five microliters of the Zenon blocking reagent (Component B) was added to the reaction mixture. After another five minutes at room temperature the complexes were ready to be used. 5×10^6 cells/ml of viable JVM-3 cells were resuspended in PBS. 100 ul of the cells were added to each tube. 10 ul of human IgG was added to block non-specific binding. The cells and human IgG were incubated for 10 minutes. […] The mixture was incubated for an additional 30 minutes on ice in the dark. Then 500 ul of PBS was added to the cells and they were centrifuged for 5 minutes at 1000 rpm. The supernatant was removed and 500 ul of PBS was added and the cells were centrifuged again. Again the supernatant was removed and the cells resuspended in 300 ul of PBS. The cells were analyzed on a BD FACSCanto.
substance,measurement,setting,value
"ofatumumab: new generation, human monoclonal antibody that targets a membrane proximal, small loop epitope of the CD20 molecule; 2F2 antibody in WO2004/035607",induction of tumor cell lysis by CDC activity,[1],superior induction of tumor cell lysis by CDC
same,receptor bound on the cell surface,CD20 on JVM-3 cells,bound more receptors on the cell surface than rituxan antibody did
